Laboratory results from ChEMBL document CHEMBL1147077, “Induced-fit tightens pleuromutilins binding to ribosomes and remote interactions enable their selectivity” (Proc Natl Acad Sci U S A, 2007).
pKd: −log10 of the molar value.

Tests used:
[1] = Displacement of [3H]SB-2587891 from Escherichia coli ribosomes; type: subcellular, Ribosome
Streptococcus pyogenes = experiment: Antimicrobial activity against Streptococcus pyogenes; type: functional
Staphylococcus aureus = experiment: Antimicrobial activity against Staphylococcus aureus; type: functional

Work on C=C[C@]1(C)C[C@@H](OC(=O)CSC2CCNCC2)[C@]2(C)[C@H](C)CC[C@]3(CCC(=O)[C@H]32)[C@@H](C)[C@@H]1O yielded a pKd [1] of 8.12.
Compound C=C[C@]1(C)C[C@@H](OC(=O)NC(=O)c2ccc(N)nn2)[C@]2(C)[C@H](C)CC[C@]3(C[C@H](O)C(=O)[C@H]32)[C@@H](C)[C@@H]1O has a pKd [1] of 7.95.
With C=C[C@]1(C)C[C@@H](OC(=O)CS[C@@H]2C[C@H]3CC[C@@H](C2)N3C)[C@]2(C)[C@H](C)CC[C@]3(CCC(=O)[C@H]32)[C@@H](C)[C@@H]1O [RETAPAMULIN] the pKd [1] was 8.70, the MIC (Streptococcus pyogenes) was ≤ 0.5 µg/mL and the MIC (Staphylococcus aureus) was ≤ 0.5 µg/mL.
